Source: PMC7960226 (Science (New York, N.Y.), 2020)
Read-outs that look alike come from different tables or passages of the source.

Assays:
OPRM1 = OPRM1 (Homo sapiens, UniProt P35372); assay: safety panel assay, OPRM1; assay type: binding; details: Table 2, OPRM1 (OPRM); accurate to ±20%
ADRA1A = biological target: T1, ADRA1A (Homo sapiens, UniProt P35348); details: Table 2, ADRA1A; accurate to ±20%
T1 sequence (P35348 1-466): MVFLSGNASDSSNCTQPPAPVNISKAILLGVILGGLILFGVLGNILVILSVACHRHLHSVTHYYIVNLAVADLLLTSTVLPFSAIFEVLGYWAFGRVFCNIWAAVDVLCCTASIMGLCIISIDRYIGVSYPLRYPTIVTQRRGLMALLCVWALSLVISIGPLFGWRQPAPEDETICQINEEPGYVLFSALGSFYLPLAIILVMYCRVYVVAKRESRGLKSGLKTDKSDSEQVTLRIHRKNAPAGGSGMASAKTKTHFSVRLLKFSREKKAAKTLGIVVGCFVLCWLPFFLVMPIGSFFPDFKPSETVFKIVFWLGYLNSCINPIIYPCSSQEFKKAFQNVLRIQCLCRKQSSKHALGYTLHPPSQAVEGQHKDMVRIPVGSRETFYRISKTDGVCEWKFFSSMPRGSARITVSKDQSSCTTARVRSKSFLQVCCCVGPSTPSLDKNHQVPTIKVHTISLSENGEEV

PRMT1 = PRMT1 (Homo sapiens, UniProt Q99873); details: Table 1, predicted target PRMT1
DRD1 = DRD1 (Homo sapiens, UniProt P21728); assay type: binding; details: Table 2, DRD1; accurate to ±20%
DRD1, sequence (P21728 whole entry, species assumed): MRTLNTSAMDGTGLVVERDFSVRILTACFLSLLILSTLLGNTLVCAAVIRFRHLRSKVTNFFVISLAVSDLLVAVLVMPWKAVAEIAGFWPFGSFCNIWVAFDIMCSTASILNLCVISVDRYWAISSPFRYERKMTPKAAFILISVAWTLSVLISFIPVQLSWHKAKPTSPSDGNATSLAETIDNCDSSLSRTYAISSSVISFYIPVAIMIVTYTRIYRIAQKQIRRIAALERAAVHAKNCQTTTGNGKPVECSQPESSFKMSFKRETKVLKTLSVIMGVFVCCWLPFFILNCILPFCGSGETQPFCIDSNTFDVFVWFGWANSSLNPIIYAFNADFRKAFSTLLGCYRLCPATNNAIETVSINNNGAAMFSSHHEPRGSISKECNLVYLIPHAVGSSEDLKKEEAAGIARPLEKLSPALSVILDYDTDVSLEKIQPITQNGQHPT

ADORA3 = ADORA3 (Homo sapiens, UniProt P0DMS8); details: Table 2, ADORA3; accurate to ±20%
CHRM2 = CHRM2 (Homo sapiens, UniProt P08172); details: Table 2, CHRM2; accurate to ±20%
CHRM2, sequence (P08172 whole entry, species assumed): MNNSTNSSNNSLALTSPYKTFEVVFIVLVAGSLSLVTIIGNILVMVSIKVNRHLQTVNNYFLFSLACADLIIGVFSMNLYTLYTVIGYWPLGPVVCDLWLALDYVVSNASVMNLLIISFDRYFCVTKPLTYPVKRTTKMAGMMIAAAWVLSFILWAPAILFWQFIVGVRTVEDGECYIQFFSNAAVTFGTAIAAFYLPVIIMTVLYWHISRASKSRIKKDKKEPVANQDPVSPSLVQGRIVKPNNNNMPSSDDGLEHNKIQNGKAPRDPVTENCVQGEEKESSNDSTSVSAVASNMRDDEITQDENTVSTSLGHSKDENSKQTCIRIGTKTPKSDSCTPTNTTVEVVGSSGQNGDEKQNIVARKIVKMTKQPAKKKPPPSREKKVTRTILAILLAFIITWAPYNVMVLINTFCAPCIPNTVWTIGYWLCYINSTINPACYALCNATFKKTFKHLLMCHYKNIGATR

SLC22A6 = SLC22A6 (Homo sapiens, UniProt Q4U2R8); assay: in vitro transporter assay, SLC22A6; details: Table 1, predicted target SLC22A6
SLC22A6, sequence (Q4U2R8 whole entry): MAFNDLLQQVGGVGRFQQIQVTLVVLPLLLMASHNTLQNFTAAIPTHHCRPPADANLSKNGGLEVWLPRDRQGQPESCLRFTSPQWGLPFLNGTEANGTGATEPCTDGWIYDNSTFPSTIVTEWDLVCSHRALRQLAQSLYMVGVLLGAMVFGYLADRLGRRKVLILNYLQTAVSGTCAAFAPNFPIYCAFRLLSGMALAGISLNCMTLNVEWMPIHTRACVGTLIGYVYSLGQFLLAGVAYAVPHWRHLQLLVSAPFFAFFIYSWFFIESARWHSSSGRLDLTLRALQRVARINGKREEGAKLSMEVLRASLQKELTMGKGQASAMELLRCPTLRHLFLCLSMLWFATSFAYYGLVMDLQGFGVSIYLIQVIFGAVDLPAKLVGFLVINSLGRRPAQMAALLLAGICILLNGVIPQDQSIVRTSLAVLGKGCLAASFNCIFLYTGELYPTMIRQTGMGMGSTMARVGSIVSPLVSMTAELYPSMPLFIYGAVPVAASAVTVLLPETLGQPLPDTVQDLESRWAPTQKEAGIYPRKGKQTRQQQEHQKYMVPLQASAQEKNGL

PDE3A = PDE3A (Homo sapiens, UniProt Q14432); assay: safety panel assay, PDE3A; assay type: biochemical; details: Table 2, PDE3A; accurate to ±20%
SLCO2B1 = biological target: T2, SLCO2B1 (Homo sapiens, UniProt O94956); assay: in vitro transporter inhibition, SLCO2B1; assay type: biochemical; details: Table 2, SLCO2B1; accurate to ±20%
T2 sequence (O94956 1-709): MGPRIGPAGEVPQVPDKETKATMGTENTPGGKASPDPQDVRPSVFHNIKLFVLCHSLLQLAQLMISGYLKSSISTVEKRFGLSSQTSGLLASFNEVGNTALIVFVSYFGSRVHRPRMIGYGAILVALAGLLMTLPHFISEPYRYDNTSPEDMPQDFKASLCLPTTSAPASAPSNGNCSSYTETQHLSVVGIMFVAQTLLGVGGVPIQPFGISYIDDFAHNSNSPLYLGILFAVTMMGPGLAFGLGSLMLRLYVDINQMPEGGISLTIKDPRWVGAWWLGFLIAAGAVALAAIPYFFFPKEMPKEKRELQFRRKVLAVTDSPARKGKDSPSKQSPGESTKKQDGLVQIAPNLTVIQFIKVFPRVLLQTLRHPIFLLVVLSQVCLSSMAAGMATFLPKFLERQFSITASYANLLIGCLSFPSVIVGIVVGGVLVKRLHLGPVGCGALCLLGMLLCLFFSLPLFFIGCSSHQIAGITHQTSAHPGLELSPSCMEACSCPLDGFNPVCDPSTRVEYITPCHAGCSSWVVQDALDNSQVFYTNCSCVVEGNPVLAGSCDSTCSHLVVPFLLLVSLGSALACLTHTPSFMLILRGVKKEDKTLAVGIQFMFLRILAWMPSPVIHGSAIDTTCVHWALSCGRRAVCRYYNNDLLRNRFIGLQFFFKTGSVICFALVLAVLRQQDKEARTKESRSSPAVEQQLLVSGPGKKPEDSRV

PDE4D = PDE4D (Homo sapiens, UniProt Q08499); assay: in vitro assay, PDE4D; assay type: biochemical; details: Table 2, PDE4D; accurate to ±20%
GABRA1 = GABRA1 (Homo sapiens, UniProt P14867); assay: safety panel assay, GABRA1; assay type: binding; details: Table 2, GABRA1; accurate to ±20%
[1] = system: BioMAP Diversity PLUS panel; assay: BioMAP Diversity PLUS panel of cell-based systems
KCNH2 = KCNH2 (Homo sapiens, UniProt Q12809)
KCNH2, sequence (Q12809 whole entry): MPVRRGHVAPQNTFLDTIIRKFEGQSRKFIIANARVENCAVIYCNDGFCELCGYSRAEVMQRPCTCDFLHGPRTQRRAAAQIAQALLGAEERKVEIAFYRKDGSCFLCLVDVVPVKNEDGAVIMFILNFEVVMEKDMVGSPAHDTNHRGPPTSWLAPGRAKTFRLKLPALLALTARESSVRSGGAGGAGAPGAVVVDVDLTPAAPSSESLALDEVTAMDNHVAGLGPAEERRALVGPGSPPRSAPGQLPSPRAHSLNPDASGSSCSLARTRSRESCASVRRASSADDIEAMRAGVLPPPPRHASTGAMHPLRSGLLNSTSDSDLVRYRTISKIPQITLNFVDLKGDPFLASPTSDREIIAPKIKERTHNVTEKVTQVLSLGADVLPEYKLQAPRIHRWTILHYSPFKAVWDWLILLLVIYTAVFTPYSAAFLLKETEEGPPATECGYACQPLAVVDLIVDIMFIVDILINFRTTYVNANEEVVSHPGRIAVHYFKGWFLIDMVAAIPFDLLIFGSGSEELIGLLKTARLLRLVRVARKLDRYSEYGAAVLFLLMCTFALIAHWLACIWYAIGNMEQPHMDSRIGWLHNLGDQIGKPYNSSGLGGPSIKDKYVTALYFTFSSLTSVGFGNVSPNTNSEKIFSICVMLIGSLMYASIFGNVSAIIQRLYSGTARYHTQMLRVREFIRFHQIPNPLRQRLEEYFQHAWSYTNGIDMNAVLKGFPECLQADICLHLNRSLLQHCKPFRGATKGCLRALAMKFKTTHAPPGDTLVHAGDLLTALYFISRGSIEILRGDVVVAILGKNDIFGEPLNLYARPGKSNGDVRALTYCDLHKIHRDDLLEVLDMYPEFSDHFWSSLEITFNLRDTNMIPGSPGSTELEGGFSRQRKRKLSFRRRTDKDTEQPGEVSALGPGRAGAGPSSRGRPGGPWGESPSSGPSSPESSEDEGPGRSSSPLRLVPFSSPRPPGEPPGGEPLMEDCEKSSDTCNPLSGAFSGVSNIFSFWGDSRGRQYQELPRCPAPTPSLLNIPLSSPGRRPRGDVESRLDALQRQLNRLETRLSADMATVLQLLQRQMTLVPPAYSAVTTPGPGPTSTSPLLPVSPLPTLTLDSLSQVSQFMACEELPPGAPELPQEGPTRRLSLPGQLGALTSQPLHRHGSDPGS

ACHE = ACHE (Homo sapiens, UniProt P22303); details: Table 2, ACHE; accurate to ±20%
HRH3 = HRH3 (Homo sapiens, UniProt Q9Y5N1); details: Table 2, HRH3; accurate to ±20%
PTGS1 = PTGS1 (Homo sapiens, UniProt P23219); details: Table 2, PTGS1; accurate to ±20%
PTGS2 = biological target: T3, PTGS2 (Homo sapiens, UniProt P35354); assay: safety panel assay, PTGS2; assay type: biochemical; details: Table 2, PTGS2; accurate to ±20%
T3 sequence (P35354 18-604): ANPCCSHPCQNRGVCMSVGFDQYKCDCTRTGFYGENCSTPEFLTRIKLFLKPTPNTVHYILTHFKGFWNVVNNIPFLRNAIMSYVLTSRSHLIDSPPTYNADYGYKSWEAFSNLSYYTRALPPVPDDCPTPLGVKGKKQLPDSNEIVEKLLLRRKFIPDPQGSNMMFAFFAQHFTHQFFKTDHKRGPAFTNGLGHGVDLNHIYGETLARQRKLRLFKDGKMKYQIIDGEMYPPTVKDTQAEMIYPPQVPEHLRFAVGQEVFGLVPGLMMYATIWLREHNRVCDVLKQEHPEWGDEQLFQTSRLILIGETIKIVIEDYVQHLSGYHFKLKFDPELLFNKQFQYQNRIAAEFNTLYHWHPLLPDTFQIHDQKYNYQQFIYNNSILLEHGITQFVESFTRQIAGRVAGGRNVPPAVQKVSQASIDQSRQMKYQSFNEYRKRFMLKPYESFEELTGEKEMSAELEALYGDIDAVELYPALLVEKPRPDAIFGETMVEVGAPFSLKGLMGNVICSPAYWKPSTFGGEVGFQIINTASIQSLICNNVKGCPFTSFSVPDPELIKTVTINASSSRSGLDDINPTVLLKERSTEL

SLC18A2 = SLC18A2 (Homo sapiens, UniProt Q05940); assay: transporter inhibition, SLC18A2; assay type: biochemical; details: Table 2, SLC18A2; accurate to ±20%
SLC18A2, sequence (Q05940 whole entry, species assumed): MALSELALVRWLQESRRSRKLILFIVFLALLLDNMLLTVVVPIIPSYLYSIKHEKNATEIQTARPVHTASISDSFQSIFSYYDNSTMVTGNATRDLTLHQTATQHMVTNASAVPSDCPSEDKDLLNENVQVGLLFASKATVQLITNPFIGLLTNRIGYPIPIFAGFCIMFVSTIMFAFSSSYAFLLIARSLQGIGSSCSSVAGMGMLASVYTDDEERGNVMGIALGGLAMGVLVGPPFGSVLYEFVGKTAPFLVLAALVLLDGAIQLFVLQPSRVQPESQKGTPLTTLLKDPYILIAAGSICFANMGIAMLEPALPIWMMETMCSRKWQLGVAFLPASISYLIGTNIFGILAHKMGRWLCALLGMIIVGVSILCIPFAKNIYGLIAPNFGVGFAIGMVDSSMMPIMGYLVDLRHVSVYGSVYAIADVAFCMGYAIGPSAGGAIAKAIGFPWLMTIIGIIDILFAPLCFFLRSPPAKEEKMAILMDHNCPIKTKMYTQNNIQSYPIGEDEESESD

SLC6A3 = SLC6A3 (Homo sapiens, UniProt Q01959); assay: safety panel assay, SLC6A3; assay type: biochemical; details: Table 2, SLC6A3; accurate to ±20%
DRD3 = DRD3 (Homo sapiens, UniProt P35462); details: Table 2, DRD3; accurate to ±20%
DRD3, sequence (P35462 whole entry, species assumed): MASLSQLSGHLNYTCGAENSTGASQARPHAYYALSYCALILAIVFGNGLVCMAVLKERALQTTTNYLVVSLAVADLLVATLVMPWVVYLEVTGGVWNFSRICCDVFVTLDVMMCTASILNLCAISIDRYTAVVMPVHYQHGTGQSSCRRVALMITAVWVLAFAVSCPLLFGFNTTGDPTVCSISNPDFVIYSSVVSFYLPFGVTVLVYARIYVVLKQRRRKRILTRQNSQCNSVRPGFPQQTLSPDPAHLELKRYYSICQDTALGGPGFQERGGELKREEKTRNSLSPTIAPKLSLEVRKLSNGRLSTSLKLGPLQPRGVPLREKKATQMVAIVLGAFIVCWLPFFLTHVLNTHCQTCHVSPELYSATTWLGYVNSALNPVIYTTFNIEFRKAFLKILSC

CHRM1 = biological target: T4, CHRM1 (Homo sapiens, UniProt P11229); details: Table 2, CHRM1; an agonist effect was observed; accurate to ±20%
T4 sequence (P11229 1-460): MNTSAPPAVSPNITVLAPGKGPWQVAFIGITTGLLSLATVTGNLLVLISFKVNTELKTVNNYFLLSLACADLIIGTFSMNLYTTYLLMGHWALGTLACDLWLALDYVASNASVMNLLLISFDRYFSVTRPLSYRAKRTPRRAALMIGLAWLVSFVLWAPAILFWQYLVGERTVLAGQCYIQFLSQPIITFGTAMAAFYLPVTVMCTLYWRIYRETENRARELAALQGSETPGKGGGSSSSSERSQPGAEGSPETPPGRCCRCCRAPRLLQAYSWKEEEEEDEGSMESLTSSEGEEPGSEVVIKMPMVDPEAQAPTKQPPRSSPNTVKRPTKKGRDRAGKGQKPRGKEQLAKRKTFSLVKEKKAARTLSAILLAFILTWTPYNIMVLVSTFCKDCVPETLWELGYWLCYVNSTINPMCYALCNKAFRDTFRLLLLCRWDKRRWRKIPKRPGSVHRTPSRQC

SLC6A2 = SLC6A2 (Homo sapiens, UniProt P23975); details: Table 2, SLC6A2; accurate to ±20%
[2] = Pharmacokinetics in rats after i.v. and oral administration; details: for Cmax: 10 mg/kg, oral 10 mg/kg
ALOX5 = ALOX5 (Homo sapiens, UniProt P09917); assay: in vitro assay, ALOX5; assay type: biochemical
ALOX5, sequence (P09917 whole entry, species assumed): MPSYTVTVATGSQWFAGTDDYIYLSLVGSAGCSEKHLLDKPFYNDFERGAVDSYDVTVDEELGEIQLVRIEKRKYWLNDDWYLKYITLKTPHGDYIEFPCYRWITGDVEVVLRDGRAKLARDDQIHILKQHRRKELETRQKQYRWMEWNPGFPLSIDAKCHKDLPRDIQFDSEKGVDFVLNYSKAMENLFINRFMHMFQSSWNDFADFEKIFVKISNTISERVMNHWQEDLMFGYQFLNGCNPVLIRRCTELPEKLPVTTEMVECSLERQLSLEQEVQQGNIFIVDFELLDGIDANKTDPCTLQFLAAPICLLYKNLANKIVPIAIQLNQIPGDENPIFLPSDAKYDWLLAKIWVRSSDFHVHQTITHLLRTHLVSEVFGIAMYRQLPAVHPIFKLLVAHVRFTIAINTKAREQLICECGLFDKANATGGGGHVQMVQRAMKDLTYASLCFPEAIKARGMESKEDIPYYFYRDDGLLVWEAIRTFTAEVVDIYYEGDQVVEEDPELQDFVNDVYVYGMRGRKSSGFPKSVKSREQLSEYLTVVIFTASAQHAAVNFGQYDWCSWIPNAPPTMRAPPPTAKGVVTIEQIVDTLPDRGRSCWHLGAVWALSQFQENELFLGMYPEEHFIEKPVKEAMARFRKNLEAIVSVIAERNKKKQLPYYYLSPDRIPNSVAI

KDM4C = KDM4C (Homo sapiens, UniProt Q9H3R0); assay: in vitro assay, KDM4C; assay type: biochemical; details: Table 2, KDM4C; accurate to ±20%
[3] = Madin-Darby canine kidney permeability assay; details: dog, MDCK
FTO = FTO (Homo sapiens, UniProt Q9C0B1); assay: in vitro assay, FTO; assay type: biochemical; details: Table 2, FTO; accurate to ±20%
TY3H = TY3H (Homo sapiens, UniProt P07101); assay: in vitro assay, TY3H; assay type: biochemical; details: Table 2, TY3H; accurate to ±20%
COMT = COMT (Homo sapiens, UniProt P21964); assay: in vitro inhibition of COMT
COMT, sequence (P21964 whole entry): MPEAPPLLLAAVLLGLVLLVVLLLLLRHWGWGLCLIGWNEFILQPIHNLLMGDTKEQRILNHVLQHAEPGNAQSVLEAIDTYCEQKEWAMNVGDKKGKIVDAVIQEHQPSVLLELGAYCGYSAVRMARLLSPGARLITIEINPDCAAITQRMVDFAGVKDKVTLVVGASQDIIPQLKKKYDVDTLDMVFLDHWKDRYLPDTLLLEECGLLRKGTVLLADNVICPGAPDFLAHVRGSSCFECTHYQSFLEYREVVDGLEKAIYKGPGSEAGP

OPRM1, sequence (P35372 whole entry, species assumed): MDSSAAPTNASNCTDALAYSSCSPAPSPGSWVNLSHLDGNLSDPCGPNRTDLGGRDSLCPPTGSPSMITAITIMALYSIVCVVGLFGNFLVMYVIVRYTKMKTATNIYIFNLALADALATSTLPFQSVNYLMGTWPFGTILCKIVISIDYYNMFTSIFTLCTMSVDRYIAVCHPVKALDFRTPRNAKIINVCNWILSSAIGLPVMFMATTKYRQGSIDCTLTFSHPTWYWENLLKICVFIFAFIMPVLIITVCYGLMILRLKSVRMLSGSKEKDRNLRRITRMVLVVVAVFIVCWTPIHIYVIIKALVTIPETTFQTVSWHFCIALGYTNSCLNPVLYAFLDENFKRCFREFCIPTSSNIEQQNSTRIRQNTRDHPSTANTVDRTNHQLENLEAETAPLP

## O=C([O-])c1c(Cl)c(Cl)c(Cl)c(Cl)c1-c1c2cc(Br)c(=O)c(Br)c-2oc2c(Br)c([O-])c(Br)cc12.[Na+].[Na+] [D&C Red No. 28, Phloxine B]
OPRM1
  Ki/IC50 Or EC50: 820 nM
ADRA1A
  Ki/IC50 Or EC50: 480 nM
PRMT1
  Ki/IC50: 700 nM
DRD1
  Ki/IC50 Or EC50: 590 nM
ADORA3
  Ki/IC50 Or EC50: 480 nM
CHRM2
  Ki/IC50 Or EC50: 680 nM
SLC22A6
  Ki/IC50: 64 nM
PDE3A
  Ki/IC50 Or EC50: 130 nM
SLCO2B1
  Ki/IC50 Or EC50: 600 nM
PDE4D
  Ki/IC50 Or EC50: 940 nM

## O=C([O-])C1=NN(c2ccc(S(=O)(=O)[O-])cc2)C(=O)C1N=Nc1ccc(S(=O)(=O)[O-])cc1.[Na+].[Na+].[Na+] (stereo not drawn) [FD&C Yellow No. 5 (Tartrazine), Tartrazine]
OPRM1
  Ki/IC50 Or EC50: 16000 nM
DRD1
  Ki/IC50 Or EC50: 23000 nM
GABRA1
  Ki/IC50 Or EC50: 13000 nM
[1]; 1.1, 3.3, 10, 30 μM
  activity in the BioMAP cell-based systems: no measurable activity

## CN(C)c1ccc2nc3ccc(=[N+](C)C)cc-3sc2c1 [Methylene Blue]
KCNH2; human
  Ki/IC50 Or EC50: 0.090 0.19 0.88 27.5 μM
CHRM2
  Ki/IC50 Or EC50: 190 nM
ACHE
  Ki/IC50 Or EC50: 90 nM
HRH3
  Ki/IC50 Or EC50: 880 nM

## CCCCCCCC/C=C\CCCCCCCC(=O)O [Oleic acid]
PTGS1
  Ki/IC50 Or EC50: 6700 nM
PTGS2
  Ki/IC50 Or EC50: 3500 nM
SLC18A2
  Ki/IC50 Or EC50: 4700 nM

## CC(=O)[O][Hg][c]1ccccc1 [Phenylmercuric acetate]
KCNH2; Table 2, KCNH2, accurate to ±20%
  Ki/IC50 Or EC50: 6.2 µM
DRD1
  Ki/IC50 Or EC50: 2200 nM
SLC6A3
  Ki/IC50 Or EC50: 1800 nM
DRD3
  Ki/IC50 Or EC50: 24 nM
CHRM1
  Ki/IC50 Or EC50: 8100 nM
SLC6A2
  Ki/IC50 Or EC50: 1700 nM
SLC18A2
  Ki/IC50 Or EC50: 360 nM

## CCCOC(=O)c1cc(O)c(O)c(O)c1 [Propyl gallate]
[2]; rat, blood, iv, 1 mg/kg
  half-life: 4.9 h
[2]; rat, blood, po, Oral Cmax, rats
  Cmax: 5 nM
[2]; rats, i.v. 1 mg/kg, dose normalized
  i.v. AUC 0–24 (d.n.): 6908 nM-hour
[2]; read-out: Oral Cmax, rats, blood
  Cmax: < 8.9 nM
ALOX5
  IC50: 430 nM
ALOX5; Table 2, ALOX5, accurate to ±20%
  Ki/IC50 Or EC50: 430 nM
KDM4C
  Ki/IC50 Or EC50: 39000 nM
[3]
  Papp: 11.7 ×10⁻⁶ cm/s
FTO
  Ki/IC50 Or EC50: 3000 nM
PTGS2
  Ki/IC50 Or EC50: 7200 nM
TY3H
  Ki/IC50 Or EC50: 1900 nM
[1]; B and T cells, coronary artery smooth muscle cells, endothelial cells, fibroblasts, at 10 or 30 μM
  effect on proliferation: antiproliferative
COMT
  IC50: 15 nM
COMT; Table 1, predicted target COMT
  Ki/IC50: 15 nM
